In PubChem BioAssay AID1918935 (Molecular Pharmacology Branch, DTP, NCI, 2023):
Several values for one entry are separate records, joined by “and”; a condition that tells them apart may be missing. Identical values can stand only once.

System: 324938-238-R-J1-PDC complex spheroid viability
Test: Anticancer human tumor 324938-238-R-J1-PDC patient-derived bladder carcinoma cell line growth inhibition
Conditions: for viability, T/C: stronger effect = lower value
Description: Multicellular complex tumor spheroid response to LSD1 Inhibitor Iadademstat in combination with a variety of drugs and investigational agents in selected tumor cell lines
The current study was undertaken to assess response to LSD1 inhibitors in combination with standard-of-care drugs and investigational agents in solid tumor complex spheroid models as well as in the K-562 leukemia. Complex spheroids include a stromal component modeled by human endothelial cells (HUVEC) and fibroblasts modeled by human mesenchymal stem cells (MSCs). The concentration ranges selected for each drug and investigational agent were based upon clinically achievable concentrations if the clinical Cmax of the agent was known.
Compounds. The drugs and investigational agents used in this study are listed on Table 1. All of the agents used, including staurosporine (NSC755774) and gemcitabine (NSC613327), were obtained from the Developmental Therapeutics Program, NCI. FDA-approved anticancer drugs are available from the NCI at http://dtp.nci.nih.gov/branches/dscb/oncology_drugset_explanation.html. Drugs and investigational agents were >95% pure by proton nuclear magnetic resonance (NMR) and liquid chromatography/mass spectrometry (LC/MS). Stock solutions were prepared at 400x in DMSO, stored at -70 degrees C, and diluted in fresh medium prior to their use. The final concentration of DMSO in cell culture wells never exceeded 0.25% (v/v). The FDA-approved anticancer drug set is available from the Developmental Therapeutics Program at https://dtp.cancer.gov/organization/dscb/obtaining/available_plates.htm. All drugs and investigational agents were tested over a range starting from a high concentration at or near the clinical Cmax and decreasing in half-log increments. If the clinical Cmax for an agent had not been determined, the highest concentration tested was 10 microM.
Cell Lines. The patient-derived cancer cell (PDC) lines: 292921-168-R-J2-PDC, K24384-001-R-PDC, and 521955-158-R2-J5-PDC pancreatic carcinomas, 556581-035-R-J1 ovarian carcinoma, 324938-238-R-J1-PDC, 855422-203-R-J1-PDC and 883617-216-R-J1-PDC urothelial bladder carcinomas, 743489-274-T-PDC renal cell carcinoma, 138582-R-J1 Merkel cell tumor, K60290-347-R-J1 and K57222-313-R-J1-PDC glioblastomas, 653999-131-R-J2-PDC, LG0703-F948-PDC, and 349418-098-R-PDC non-small cell lung carcinomas, 885512-296-R-J2-PDC, 171881-019-R-J1-PDC breast carcinomas and 186277-243-T-J2-PDC and 233499-124-R-J2-PDC colon carcinomas were obtained from the NCI Patient-Derived Models Repository (PDMR, https://pdmr.cancer.gov). The established cell lines NCI/ADR-RES (RRID:CVCL_14520 and OVCAR-5 (RRID:CVCL_1628) ovarian carcinomas, 786-O (RRID:CVCL_1051) and A498 (RRID:CVCL_A498) renal cell carcinoma, NCI-H211 (ATCC, cat. CRL-5824; RRID:CVCL_1529), NCI-H196 (ATCC, cat. CRL-5823, RRID:CVCL_1509), SW 1271 (ATCC, cat. CRL-2177, RRID:CVCL_1716) and NCI-H1876 (ATCC, cat. CRL-5902, RRID:CVCL_1503) small cell lung carcinomas, MDA-MB-231 (RRID:CVCL_0062) and MDA-MB-468 (RRID:CVCL_0419)breast carcinomas (10-12). Pooled donor human umbilical vein endothelial cells (HUVEC, Lonza, cat. CC-2519) and human mesenchymal stem cells (hMSC, Lonza, cat. PT-2501) were purchased from Lonza (Walkersville, MD).
Cell Culture. All cells were maintained in an incubator at 37 degrees C and 5% CO2 with 95% humidity. The PDC lines were cultured according to standard operating procedures established by the NCI PDMR (https://pdmr.cancer.gov). Briefly all PDCs were thawed and cultured in Matrigel-coated flasks prepared with a working solution of 1X Ham's F-12 nutrient mix, without supplementation (Invitrogen, Waltham, MA, cat. 11765054), 100 U/mL penicillin-streptomycin (Invitrogen, cat. 15140122), and 2.5% Matrigel (Corning Inc., Corning, NY, cat. 354248) for the first three passages. […]

[1] = curve of first compound, second compound 0.1 µM
[2] = curve of first compound, second compound 0.316 µM
[3] = curve of first compound, second compound 1 µM
[4] = curve of first compound, second compound 3.16 µM
[5] = curve of first compound, second compound 10 µM
[6] = second compound 0.1 µM, first compound 0.00316 µM
[7] = second compound 0.1 µM, first compound 0.01 µM
[8] = second compound 0.1 µM, first compound 0.0316 µM
[9] = second compound 0.1 µM, first compound 0.1 µM
[10] = second compound 0.316 µM, first compound 0.00316 µM
[11] = second compound 0.316 µM, first compound 0.01 µM
[12] = second compound 0.316 µM, first compound 0.0316 µM
[13] = second compound 0.316 µM, first compound 0.1 µM
[14] = second compound 1 µM, first compound 0.00316 µM
[15] = second compound 1 µM, first compound 0.01 µM
[16] = second compound 1 µM, first compound 0.0316 µM
[17] = second compound 1 µM, first compound 0.1 µM
[18] = second compound 3.16 µM, first compound 0.00316 µM
[19] = second compound 3.16 µM, first compound 0.01 µM
[20] = second compound 3.16 µM, first compound 0.0316 µM
[21] = second compound 3.16 µM, first compound 0.1 µM
[22] = second compound 10 µM, first compound 0.00316 µM
[23] = second compound 10 µM, first compound 0.01 µM
[24] = second compound 10 µM, first compound 0.0316 µM
[25] = second compound 10 µM, first compound 0.1 µM
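Note: spheroids also contain HUVEC and human MSCs and agents combined with iadademstat; spheroids exposed to agents for 7 days before readout.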

`CC(C)CC(NC(=O)C(Cc1ccccc1)NC(=O)c1cnccn1)B(O)O` (configuration not stated) + NC1CCC(NC2CC2c2ccccc2)CC1 showed an IC50 [1] of 472 pM, an IC50 [2] of 443 pM and an IC50 [3] of 483 pM. It also gave an IC50 [4] of 442 pM, an IC50 [5] of 434 pM and a viability, T/C (second compound 0.1 µM, first compound 0.000316 µM) of 66.8%. The viability, T/C (second compound 0.1 µM, first compound 0.001 µM) was 18.7%, the viability, T/C [6] was 0.06% and the viability, T/C [7] was 0.03%. For the same compound, the viability, T/C [8] was 0.03%, the viability, T/C [9] was 0.15% and the viability, T/C (second compound 0.316 µM, first compound 0.000316 µM) was 64.9%. For the same compound, the viability, T/C (second compound 0.316 µM, first compound 0.001 µM) was 14.3%, the viability, T/C [10] was 0.14% and the viability, T/C [11] was 0.01%. For the same compound, the viability, T/C [12] was 0.02%, the viability, T/C [13] was 0.12% and the viability, T/C (second compound 1 µM, first compound 0.000316 µM) was 72.2%. For the same compound, the viability, T/C (second compound 1 µM, first compound 0.001 µM) was 12.1%, the viability, T/C [14] was 0.1% and the viability, T/C [15] was 0.01%. The viability, T/C [16] was 0.73%, the viability, T/C [17] was 0.11% and the viability, T/C (second compound 3.16 µM, first compound 0.000316 µM) was 65%. It also gave a viability, T/C (second compound 3.16 µM, first compound 0.001 µM) of 13.8%, a viability, T/C [18] of 0.43% and a viability, T/C [19] of 0.02%. It also gave a viability, T/C [20] of 0.03%, a viability, T/C [21] of 0.12% and a viability, T/C (second compound 10 µM, first compound 0.000316 µM) of 65%. It also gave a viability, T/C (second compound 10 µM, first compound 0.001 µM) of 10.8%, a viability, T/C [22] of 0.12% and a viability, T/C [23] of 0.29%. For the same compound, the viability, T/C [24] was 0.1% and the viability, T/C [25] was 0.17%.
Work on `CCc1c2c(nc3ccc(O)cc13)-c1cc3c(c(=O)n1C2)COC(=O)[C@]3(O)CC` + NC1CC1c1ccc(-c2cccc(O)c2)cc1 yielded an IC50 [1] of under 949 pM, an IC50 [2] of under 949 pM and an IC50 [3] of under 949 pM. It also gave an IC50 [4] of under 949 pM, an IC50 [5] of under 949 pM and a viability, T/C (second compound 0.1 µM, first compound 0.000949 µM) of 8.63%. For the same compound, the viability, T/C (second compound 0.1 µM, first compound 0.003 µM) was 8.28%, the viability, T/C (second compound 0.1 µM, first compound 0.00949 µM) was 6.38% and the viability, T/C (second compound 0.1 µM, first compound 0.03 µM) was 2.62%. It also gave a viability, T/C (second compound 0.1 µM, first compound 0.0949 µM) of 1.19%, a viability, T/C (second compound 0.1 µM, first compound 0.3 µM) of 0.47% and a viability, T/C (second compound 0.316 µM, first compound 0.000949 µM) of 7.65%. It also gave a viability, T/C (second compound 0.316 µM, first compound 0.003 µM) of 7.41%, a viability, T/C (second compound 0.316 µM, first compound 0.00949 µM) of 5.98% and a viability, T/C (second compound 0.316 µM, first compound 0.03 µM) of 2.79%. It also gave a viability, T/C (second compound 0.316 µM, first compound 0.0949 µM) of 0.46%, a viability, T/C (second compound 0.316 µM, first compound 0.3 µM) of 0.55% and a viability, T/C (second compound 1 µM, first compound 0.000949 µM) of 6.57%. It also gave a viability, T/C (second compound 1 µM, first compound 0.003 µM) of 8.14%, a viability, T/C (second compound 1 µM, first compound 0.00949 µM) of 6.37% and a viability, T/C (second compound 1 µM, first compound 0.03 µM) of 1.95%. It also gave a viability, T/C (second compound 1 µM, first compound 0.0949 µM) of 0.51%, a viability, T/C (second compound 1 µM, first compound 0.3 µM) of 0.15% and a viability, T/C (second compound 3.16 µM, first compound 0.000949 µM) of 6.75%. It also gave a viability, T/C (second compound 3.16 µM, first compound 0.003 µM) of 6.96%, a viability, T/C (second compound 3.16 µM, first compound 0.00949 µM) of 6.25% and a viability, T/C (second compound 3.16 µM, first compound 0.03 µM) of 2.46%. It also gave a viability, T/C (second compound 3.16 µM, first compound 0.0949 µM) of 0.53%, a viability, T/C (second compound 3.16 µM, first compound 0.3 µM) of 0.31% and a viability, T/C (second compound 10 µM, first compound 0.000949 µM) of 10.5%. For the same compound, the viability, T/C (second compound 10 µM, first compound 0.003 µM) was 9.76%, the viability, T/C (second compound 10 µM, first compound 0.00949 µM) was 7.12% and the viability, T/C (second compound 10 µM, first compound 0.03 µM) was 2.62%. It also gave a viability, T/C (second compound 10 µM, first compound 0.0949 µM) of 0.17% and a viability, T/C (second compound 10 µM, first compound 0.3 µM) of 0.23%.
In the case of `O=C(C=Cc1cccc(S(=O)(=O)Nc2ccccc2)c1)NO`, the viability, T/C (compound 0.00949 µM) is reported as 95.5% and 107%, the viability, T/C (compound 0.03 µM) is reported as 89.1% and 92.1% and the viability, T/C (compound 0.0949 µM) is reported as 71% and 70%. For the same compound, the viability, T/C (compound 0.3 µM) was 46.1% and 42.8%, the viability, T/C (compound 0.949 µM) was 26.1% and 24.2% and the viability, T/C (compound 3 µM) was 4.98% and 3.24%. The IC50 (curve of compound) was 273000 pM and 237000 pM.
In the case of `COc1cc(Nc2ncc3c(n2)-c2ccc(Cl)cc2C(c2c(F)cccc2OC)=NC3)ccc1C(=O)O` + NC1CC1c1ccc(-c2cccc(O)c2)cc1, the IC50 [1] is reported as 10700 pM, the IC50 [2] is reported as 9450 pM and the IC50 [3] is reported as 11900 pM. The IC50 [4] was 13700 pM, the IC50 [5] was 10800 pM and the viability, T/C [6] was 76.1%. The viability, T/C [7] was 51%, the viability, T/C [8] was 28.1% and the viability, T/C [9] was 13.9%. The viability, T/C (second compound 0.1 µM, first compound 0.316 µM) was 18.2%, the viability, T/C (second compound 0.1 µM, first compound 1 µM) was 13.9% and the viability, T/C [10] was 69.5%. It also gave a viability, T/C [11] of 48.3%, a viability, T/C [12] of 30% and a viability, T/C [13] of 16%. It also gave a viability, T/C (second compound 0.316 µM, first compound 0.316 µM) of 15.8%, a viability, T/C (second compound 0.316 µM, first compound 1 µM) of 14.8% and a viability, T/C [14] of 63%. For the same compound, the viability, T/C [15] was 54.3%, the viability, T/C [16] was 26.2% and the viability, T/C [17] was 16.5%. For the same compound, the viability, T/C (second compound 1 µM, first compound 0.316 µM) was 17.6%, the viability, T/C (second compound 1 µM, first compound 1 µM) was 15.1% and the viability, T/C [18] was 62.6%. It also gave a viability, T/C [19] of 57.6%, a viability, T/C [20] of 30% and a viability, T/C [21] of 18.1%. It also gave a viability, T/C (second compound 3.16 µM, first compound 0.316 µM) of 18.8%, a viability, T/C (second compound 3.16 µM, first compound 1 µM) of 16.5% and a viability, T/C [22] of 57.4%. For the same compound, the viability, T/C [23] was 51.2%, the viability, T/C [24] was 29.5% and the viability, T/C [25] was 19.4%. The viability, T/C (second compound 10 µM, first compound 0.316 µM) was 19.7% and the viability, T/C (second compound 10 µM, first compound 1 µM) was 25.8%.
